Calls of active or inactive are those of the source. The calls are words filed in the database; no cut-off is given here.
What was measured:
Type in all cases: cell-based
Ecdysone receptor [1] = molecular target: T1, Ecdysone receptor (Bombyx mori, UniProt P49881); test: Agonist activity at ecdysone receptor in Bombyx mori Bm5 cells after 24 hr by luciferase reporter gene assay
T1 sequence (P49881 whole entry): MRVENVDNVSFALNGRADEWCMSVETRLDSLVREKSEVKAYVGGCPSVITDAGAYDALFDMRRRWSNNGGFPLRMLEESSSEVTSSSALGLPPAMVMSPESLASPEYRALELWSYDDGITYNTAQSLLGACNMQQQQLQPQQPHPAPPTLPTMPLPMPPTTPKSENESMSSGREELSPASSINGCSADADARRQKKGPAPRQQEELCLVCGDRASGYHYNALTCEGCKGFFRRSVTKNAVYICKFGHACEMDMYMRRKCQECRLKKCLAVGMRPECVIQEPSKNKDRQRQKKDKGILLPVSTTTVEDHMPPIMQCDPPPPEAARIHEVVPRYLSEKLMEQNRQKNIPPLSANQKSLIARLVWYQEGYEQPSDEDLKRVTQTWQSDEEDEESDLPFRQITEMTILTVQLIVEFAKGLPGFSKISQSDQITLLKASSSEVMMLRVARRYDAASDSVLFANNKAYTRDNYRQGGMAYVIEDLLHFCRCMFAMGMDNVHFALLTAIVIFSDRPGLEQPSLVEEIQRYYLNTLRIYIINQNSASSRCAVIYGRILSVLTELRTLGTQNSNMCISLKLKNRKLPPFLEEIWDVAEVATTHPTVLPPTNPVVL

Ecdysone receptor [2] = molecular target: T2, Ecdysone receptor (Drosophila melanogaster, UniProt P20153+P34021); test: (§1) Agonist activity at ecdysone receptor in Drosophila melanogaster S2 cells after 24 hr by luciferase reporter gene assay
T2 sequence (P34021 whole entry): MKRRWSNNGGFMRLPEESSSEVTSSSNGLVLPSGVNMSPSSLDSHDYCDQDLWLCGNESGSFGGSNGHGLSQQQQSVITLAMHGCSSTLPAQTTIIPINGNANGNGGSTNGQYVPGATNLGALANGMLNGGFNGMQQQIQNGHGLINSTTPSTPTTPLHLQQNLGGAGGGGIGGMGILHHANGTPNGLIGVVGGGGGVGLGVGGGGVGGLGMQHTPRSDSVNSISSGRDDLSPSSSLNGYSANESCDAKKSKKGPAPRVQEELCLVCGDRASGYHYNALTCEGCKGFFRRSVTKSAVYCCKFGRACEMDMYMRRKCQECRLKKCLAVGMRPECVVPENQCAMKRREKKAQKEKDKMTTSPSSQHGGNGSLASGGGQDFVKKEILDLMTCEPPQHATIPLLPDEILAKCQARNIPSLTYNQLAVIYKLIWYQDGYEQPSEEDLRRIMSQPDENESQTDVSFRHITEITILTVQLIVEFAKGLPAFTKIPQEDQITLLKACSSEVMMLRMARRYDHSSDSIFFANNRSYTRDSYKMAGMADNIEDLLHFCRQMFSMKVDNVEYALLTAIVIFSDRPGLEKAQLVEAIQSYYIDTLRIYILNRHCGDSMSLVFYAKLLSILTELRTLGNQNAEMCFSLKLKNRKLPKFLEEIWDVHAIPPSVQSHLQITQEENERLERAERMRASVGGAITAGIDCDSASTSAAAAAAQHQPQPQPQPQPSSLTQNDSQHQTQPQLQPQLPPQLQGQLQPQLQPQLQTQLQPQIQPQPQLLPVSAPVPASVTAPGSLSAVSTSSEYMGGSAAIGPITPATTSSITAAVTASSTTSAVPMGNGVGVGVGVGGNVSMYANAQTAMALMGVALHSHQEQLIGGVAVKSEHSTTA
T2 sequence (P20153 whole entry): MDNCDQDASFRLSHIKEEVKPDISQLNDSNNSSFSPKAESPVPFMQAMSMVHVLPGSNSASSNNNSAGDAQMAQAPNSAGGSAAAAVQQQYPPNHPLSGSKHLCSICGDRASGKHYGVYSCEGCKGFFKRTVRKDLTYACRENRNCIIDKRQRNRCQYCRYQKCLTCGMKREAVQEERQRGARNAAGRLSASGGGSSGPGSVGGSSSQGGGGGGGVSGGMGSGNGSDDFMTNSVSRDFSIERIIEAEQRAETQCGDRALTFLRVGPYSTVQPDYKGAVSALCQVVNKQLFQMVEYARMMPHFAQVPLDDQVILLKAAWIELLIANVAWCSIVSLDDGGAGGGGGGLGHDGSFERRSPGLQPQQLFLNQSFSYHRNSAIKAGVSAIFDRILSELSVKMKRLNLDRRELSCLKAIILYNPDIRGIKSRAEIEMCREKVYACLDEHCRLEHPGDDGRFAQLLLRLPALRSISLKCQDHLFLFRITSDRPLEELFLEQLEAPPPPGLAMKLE

[3] = molecular target: T3, Ecdysone receptor (Drosophila melanogaster) (UniProt P34021+P20153); test: Agonist activity at ecdysone receptor in Drosophila melanogaster S2 cells at 100 uM after 24 hr by luciferase reporter gene assay relative to 20-hydroxyecdysone
[4] = molecular target: T3, Ecdysone receptor (Drosophila melanogaster); test: as §1

Row | SMILES | EC50 (Ecdysone receptor [1]) | EC50 (Ecdysone receptor [2]) | Efficacy [3] | pEC50 [4]
1 | CC(C)(C)N(NC(=O)c1cccc(Cl)c1Cl)C(=O)c1ccccc1Cl | 0.00933 µM | 7.76 µM | 74% | –
2 | CC(C)(C)N(Cc1ccccc1)NC(=O)c1ccccc1 | – | > 100 µM | 1% | –
3 | CCc1ccc(C(=O)NN(C(=O)C2CC=CCC2)C(C)(C)C)cc1 (configuration not stated) | 1 µM | > 100 µM | 1% | –
4 | CCCCCC(=O)NN(C(=O)c1cc(C)cc(C)c1)C(C)(C)C | 0.0794 µM | > 100 µM | 36% | –
5 | Cc1cccc(C(=O)NN(C(=O)c2ccccc2Cl)C(C)(C)C)c1C | 0.02 µM | 11.5 µM | 76% | –
6 | CC(C)(C)N(NC(=O)c1ccc(C#N)cc1)C(=O)c1ccccc1Cl | 0.603 µM | 93.3 µM | 52% | –
7 | CC(C)CN(NC(=O)c1ccccc1)C(=O)c1ccccc1 | 2.88 µM | > 100 µM | 33% | –
8 | Cc1ccccc1C(=O)NN(C(=O)c1ccccc1Cl)C(C)(C)C | 0.0724 µM | 25.7 µM | 83% | –
9 | Cc1cc(C)cc(C(=O)C2(NC(=O)C(F)(F)F)CCCCC2)c1 | – | – | – | inactive
10 | Cc1cc(C)cc(C(=O)N(NC(=O)c2ccccc2)C(C)(C)C)c1 | 0.0692 µM | 66.1 µM | 57% | –
11 | CCc1ccc(C(=O)NC(C(=O)c2cc(C)cc(C)c2)C(C)(C)C)cc1 (racemic) | – | – | – | inactive
12 | CCCCCCC(=O)NN(C(=O)c1ccccc1Cl)C(C)(C)C | 0.741 µM | > 100 µM | 10% | –
13 | Cc1cccc(C(=O)NN(C(=O)c2ccccc2Cl)C(C)(C)C)c1 | 0.603 µM | 107 µM | 48% | –
14 | COc1ccc(C(=O)NN(C(=O)c2ccccc2Cl)C(C)(C)C)cc1 | 0.0513 µM | 11.2 µM | 112% | –
15 | CC(C)(C)N(NC(=O)c1ccccc1I)C(=O)c1ccccc1Cl | 1.29 µM | 87.1 µM | 54% | –
16 | CC(C)(C)N(NC(=O)c1ccccc1Br)C(=O)c1ccccc1Cl | 0.316 µM | 60.3 µM | 59% | –
17 | CC(C)(C)N(NC(=O)c1cccc(F)c1)C(=O)c1ccccc1Cl | 0.0692 µM | 25.7 µM | 76% | –
18 | CCC(CC)(NC(=O)c1ccc2c(c1C)CCCO2)C(=O)c1cc(C)cc(C)c1 | – | – | – | inactive
19 | Cc1cc(C)c(Cl)c(C(=O)N(NC(=O)c2ccccc2)C(C)(C)C)c1 | – | > 100 µM | 2% | –
20 | O=C(NN(CC1CCCCC1)C(=O)c1ccccc1)c1ccccc1 | 1.7 µM | > 100 µM | 1% | –

Row | SMILES | EC50 (Ecdysone receptor [1]) | EC50 (Ecdysone receptor [2]) | Efficacy [3] | pEC50 [4]
21 | Cc1ccc(C)c(C(=O)NN(C(=O)c2ccccc2Cl)C(C)(C)C)c1 | 1.62 µM | 107 µM | 46% | –
22 | CCOc1cccc(C(=O)NN(C(=O)c2cc(C)cc(C)c2)C(C)(C)C)c1C | 0.0525 µM | 12 µM | 71% | –
23 | CCc1ccc(C(=O)NN(C(=O)c2ccccc2)C(C)(C)C)cc1 | 0.0049 µM | 5.5 µM | 52% | –
24 | CC(C)c1ccc(C(=O)NN(C(=O)c2ccccc2Cl)C(C)(C)C)cc1 | 0.0245 µM | 12 µM | 88% | –
25 | CC(C)(C)N(NC(=O)c1cccc(Br)c1)C(=O)c1ccccc1Cl | 0.191 µM | 13.2 µM | 80% | –
26 | Cc1ccc(C(=O)NN(C(=O)c2ccccc2Cl)C(C)(C)C)cc1C | 0.0871 µM | 66.1 µM | 60% | –
27 | COc1cccc(C(=O)NN(C(=O)c2ccccc2Cl)C(C)(C)C)c1 | 0.0525 µM | 72.4 µM | 58% | –
28 | COc1cccc(C(=O)NN(C(=O)c2cc(C)cc(C)c2)C(C)(C)C)c1 | 0.0661 µM | 45.7 µM | 60% | –
29 | Cc1cc(C)cc(C(=O)N(NC(=O)CCC(C)C)C(C)(C)C)c1 | 0.0912 µM | > 100 µM | 35% | –
30 | CCCCN(NC(=O)c1ccccc1)C(=O)c1ccccc1 | 7.08 µM | > 100 µM | 4% | –
31 | CC(C)(C)N(NC(=O)c1cccc(C#N)c1)C(=O)c1ccccc1Cl | 0.955 µM | 36.3 µM | 67% | –
32 | O=C(NN(C(=O)c1ccccc1)c1ccccc1)c1ccccc1 | 25.7 µM | > 100 µM | 6% | –
33 | COc1cccc(C(=O)NN(C(=O)c2ccccc2Cl)C(C)(C)C)c1C | 0.0155 µM | 16.6 µM | 77% | –
34 | CC(C)(C)N(NC(=O)c1ccccc1F)C(=O)c1ccccc1Cl | 0.0513 µM | 33.9 µM | 73% | –
35 | CC(C)(C)N(NC(=O)c1ccccc1)C(=O)c1ccc(Cl)cc1Cl | 0.117 µM | 148 µM | 40% | –
36 | CCc1ccccc1C(=O)N(NC(=O)c1ccccc1)C(C)(C)C | 0.589 µM | 97.7 µM | 50% | –
37 | CC(C)(C)N(NC(=O)c1ccc(Cl)cc1)C(=O)c1ccccc1Cl | 0.115 µM | 81.3 µM | 52% | –
38 | CCc1ccc(C(=O)NN(C(=O)c2cccc3ccccc23)C(C)(C)C)cc1 | 0.0132 µM | 10.5 µM | 53% | –
39 | O=C(NN(C(=O)c1ccccc1)C1CCCCC1)c1ccccc1 | 0.891 µM | > 100 µM | 18% | –
40 | CC(C)(C)N(NC(=O)c1ccc(F)cc1)C(=O)c1ccccc1Cl | 0.389 µM | 37.2 µM | 62% | –
